This is an account of results in patent US20250241906A1, “ANABOLIC DRUGS STIMULATING TYPE II COLLAGEN PRODUCTION FROM CHONDROCYTES OR THEIR PROGENITORS” (UNIVERSITY OF CENTRAL FLORIDA RESEARCH FOUNDATION, INC., priority 2022, published 2025).

The test system of experiment [1] is NF-κB and JAK2/STAT3 signaling. To be noted: monolayer culture; cited from earlier work.
Experiment [2] has as its system cartilage (destabilized meniscus model). Conditions: cited from earlier work.
The subject of experiment [3] is HuPRG4gLuc aggregates. Briefly: Biochemical assays on HuPRG4gLuc aggregates. Type of experiment: cell-based, human. Conditions: day 22. As for the experimental part: Biochemical assays. As previously described, frozen samples were digested in papain (0.025 mg/mL papain in 50 mM sodium phosphate, 2 mM EDTA, 2 mM cysteine) overnight. Hoechst dye was used to quantify the DNA content of the digest, with calf thymus DNA (Sigma) as the standard. Samples were read on a plate reader (Ex365, Em460 nm, SpectraMax iD5, Molecular Devices). Dimethylmethylene blue (5 ml of 3.2 mg/mL DMMB dissolved in 200 proof ethanol added to 1L of 40 mM glycine, 40 mM NaCl at pH 1.5) colorimetric assay was used to quantify GAG content of the digest with absorbance readings at 525 nm and 595 nm (correction). Hydroxyproline (HDP) content was measured for total collagen quantification. Papain digested samples were acid hydrolyzed overnight (10:1 vol/vol, 6M HCl, 110° C.) and then dried overnight (70° C.). Copper sulfate (0.15M) and NaOH (2.5M) were added and incubated (50° C., 5 minutes). Oxidation occurred through 10-minute incubation with hydrogen peroxide (6% H2O2, 50° C.). Sulfuric acid was added (1.5M H2SO4) prior to reaction with Ehrlich's reagent (10% w/v 4-dimethylamino benzaldehyde in 60% isopropanol, 26% perchloric acid, 14% MΩ water) for a final incubation (70° C., 16 minutes). Absorbance was read at 505 nm (SpectraMax iD5, Molecular Devices) with hydroxyproline standard curve generated using hydroxyproline (Sigma). […]

Experiment [4] addresses type II collagen promoter (COL2A1-Gaussia luciferase) in primary human chondrocytes. Nature of the experiment: HuCol2gLuc 3D aggregate type II collagen promoter-driven Gaussia luciferase assay. Conditions: HuCol2gLuc. Type of experiment: cell-based. As for the experimental part:
Chondrogenic Culture. Human COL2A1-GLuc or uninfected cells were thawed and seeded in growth media on synoviocyte matrix at 6,000 cells/cm^2 and expanded to 90-100% confluence in physioxia. Cells were trypsinized (0.25% Trypsin/EDTA; Corning), resuspended in growth media (for monolayer culture) or chondrogenic differentiation media for 3D aggregates (93.24% High-Glucose DMEM (Gibco), 1% dexamethasone 10^−5M (Sigma), 1% ITS+premix (Becton-Dickinson), 1% Glutamax (Hyclone), 1% 100 mM Sodium Pyruvate (Hyclone), 1% MEM Non-Essential Amino Acids (Hyclone), 0.26% L-Ascorbic Acid Phosphate 50 mM (Wako), 0.5% Fungizone (Life Technologies) with TGF-β1 (Peprotech) and seeded as described below.
Generation and Maintenance of 3D aggregates. To generate 3D aggregates, cells were seeded at 50,000 cells per well (in 96-well cell repellent u-bottom plates, GreinerBio) and then centrifuged at 500 RCF, 5 min. For the initial drug screen, aggregates were cultured in basal chondrogenic media (1 ng/ml TGF-β1) alone, with DMSO (vehicle control) or 5 μM of the drug compounds from the NCI library (Natural Products V, NCI). For candidate validation and subsequent studies aggregates were cultured in basal chondrogenic media (10 ng/ml TGF-β1) alone, with DMSO (vehicle control) or compounds as indicated in the results. Aggregates were cultured for three weeks in physioxic conditions, culture medium was sampled and replaced three times a week with fresh medium. An OT-2 (Opentrons) python coded robotic pipette, programmed at an aspiration height of 2 mm from the bottom of the wells and aspiration rate of 40 μl/s was utilized for addition of compound, cell feeding, and media sampling for luciferase assay. After three weeks, cell aggregates were either fixed in neutral buffered formalin for histology or medium removed and aggregates frozen dry (−20° C.) for biochemical assays.
Luciferase Assay. Conditioned culture medium sampled from aggregates in 96-wells (20 μL/well) was assessed using a stabilized Gaussia Luciferase buffer mix (50 µl/well) for a final concentration of 0.09 M MES, 0.15M Ascorbic Acid, and 4.2 μM Coelenterazine in white 96-well plates. Luminescence was measured in a plate reader (25° C., relative light units (RLU), En Vision plate reader). An OT-2 (Opentrons) python coded robotic pipette was utilized for luciferase buffer addition to white plates (GreinerBio).

The target of experiment [5] is type II collagen promoter (COL2A1-GLuc) in primary rabbit chondrocytes. Briefly: COL2A1-GLuc primary rabbit chondrocyte 3D aggregate luciferase assay. Conditions: 0-10 ng/ml. Type of experiment: cell-based. As for the experimental part: Chondrogenic Culture. Rabbit COL2A1-GLuc were thawed and seeded in growth media at 6000 cells/cm^2 and expanded to 90-100% confluence in physioxia. Cells were trypsinized (0.25% Trypsin/EDTA; Corning), resuspended in basal chondrogenic media (93.24% High-Glucose DMEM (Gibco), 1% dexamethasone 10^−5 M (Sigma), 1% ITS+premix (Becton-Dickinson), 1% Glutamax (Hyclone), 1% 100 mM Sodium Pyruvate (Hyclone), 1% MEM Non-Essential Amino Acids (Hyclone), 0.26% L-Ascorbic Acid Phosphate 50 mM (Wako), 0.5% Fungizone (Life Technologies) with TGF-β1 (Peprotech) and seeded as described below.
Generation and Maintenance of 3D Aggregates. To generate 3D aggregates, cells were seeded at 50,000 cells per well (in 96-well cell repellent u-bottom plates, GreinerBio) and then centrifuged at 500 RCF, 5 min. For the TGF-β1 dose response studies, that serve as positive controls for the reporter cells, aggregates were cultured in basal chondrogenic media and different concentrations of TGF-β1 ranging from 0-10 ng/ml. For the DoE studies, aggregates were cultured in basal chondrogenic media (1 ng/ml TGF-β1) as a control or basal media supplemented with vitamins and minerals (Table 3 and Table 5). Plates were cultured for three weeks in physioxia, media was sampled and replaced three times a week with respective medium. An OT-2 (Opentrons) python coded robotic pipette, programmed at an aspiration height of 2 mm from the bottom of the wells and aspiration rate of 40 μl/s was utilized for media preparation, cell feeding, and media sampling for luciferase assay. After three weeks, cell aggregates were either fixed in neutral buffered formalin for histology or medium removed and aggregates frozen dry (−20° C.) for biochemical assays.
Luciferase Assay. Cell culture medium sampled from the seeded 96-wells (20 μL/well) was assessed using a stabilized Gaussia Luciferase buffer at a final concentration of 0.09 M MES, 0.15M Ascorbic Acid, and 4.2 μM Coelenterazine in white 96-well plates. Luminescence was measured in a plate reader (25° C., relative light units, En Vision plate reader). An OT-2 (Opentrons) python coded robotic pipette was utilized for luciferase buffer addition to white plates (GreinerBio).

Experiment [6] has as its target PRG4 (lubricin) promoter in primary human chondrocytes. Briefly: HuPRG4gLuc aggregate lubricin promoter-driven Gaussia luciferase assay, TGFβ1 dose response. Type of experiment: cell-based. Conditions: 0-40 ng/mL. As for the experimental part:
HuPRG4gLuc reporter cell aggregate culture and TGFβ1 dose response. HuPRG4gLuc reporter chondrocytes were thawed from frozen stocks and seeded onto synoviocyte derived matrix coated flasks to expand to confluence (˜5 days, 37° C., 5% CO2 and 5% O2). Upon confluence, cells were trypsinized (0.25% Trypsin/EDTA, 5 min, 37° C.), neutralized with growth media (DMEM/F12 (Gibco) supplemented with 10% FBS (mesenchymal stromal cell selected and 1% penicillin-streptomycin (Hyclone)), then centrifuged (5 min, 500 RCF, room temperature [RT]). Cells were then resuspended in defined chondrogenic media (DMEM-HG 93.24% (Lonza), 1% 10^−5 M dexamethasone (Sigma), 1% ITS+premix (Becton-Dickinson), 1% Glutamax (Hyclone), 1% 100 mM Sodium Pyruvate (Hyclone), 1% MEM Non-Essential Amino Acids (Hyclone), 0.26% 50 mM L-Ascorbic Acid Phosphate (Wako), 0.5% Fungizone (Life Technologies)), and seeded (50,000 cells/well) onto a non-adherent 96-well plate (Greiner Bio), then centrifuged to form cell aggregates (5 min, 500 RCF, RT). […] Media containing the secreted Gaussia luciferase was sampled twice a week for luminescence (section 2.3). […]
Luciferase assessment. As previously described, during the 22-day culture period, luminescence was assessed twice a week. […] Luminescence was read on a plate reader (PerkinElmer EnVision 2104 Multilabel Reader.

The subject of experiment [7] is rat knee. To be noted: cited from earlier work.

`NCCc1ccc(O)c(O)c1` [dopamine]: the “NF-κB and JAK2/STAT3 signaling” value in experiment [1] is “inhibition of NF-κB and JAK2/STAT3 signaling”. Besides, the “decrease in OARSI score” value in experiment [2] is reported as 50%.
As for “TGFβ1: transforming growth factor beta 1, known stimulator of chondrogenesis, type II collagen and lubricin [reference compound]”, in experiment [3], the “EC50 DNA” value is 2.8 ng/mL. Also, the “EC50 GAG/DNA” value in experiment [3] is recorded as 4.8 ng/mL. The EC50 luminescence turned out to be 0.142 ng/mL in experiment [4] (donor 2, day 7); 1.868 ng/mL in experiment [4] (donor 2, day 21); 0.780 ng/mL in experiment [4] (first donor, day 8, 0-100 ng/ml); 2.702 ng/mL in experiment [4] (first donor, day 17); 0.17 ng/mL in experiment [5] (Day 7); 0.10 ng/mL in experiment [5] (Day 21). Also, the EC50 luminescence in experiment [6] (day 10) worked out at 2.5 ng/mL; in experiment [6] (day 22), 4.2 ng/mL.

B1: FGF18: growth factor cited for dose scaling (protein, UniProt O76093 28-207, looked up)
Fibroblast growth factor 18: EENVDFRIHVENQTRARDDVSRKQLRLYQLYSRTSGKHIQVLGRRISARGEDGDKYAQLLVETDTFGSQVRIKGKETEFYLCMNRKGKLVGKPDGTSKECVFIEKVLENNYTALMSAKYSGWYVGFTKKGRPRKGPKTRENQQDVHFMKRYPKGQPELQKPFKYTTVTKRSRRIRPTHPA
As for B1, in experiment [7], the “in vivo rat knee efficacy” value was 3-5 μg/knee.
